Patent US20130035326A1 (AMBIT BIOSCIENCES CORPORATION, priority 2009, published 2013)

How the values were obtained:
[1] = biological target: kinase panel containing either 359 or 386 distinct kinases; test: Selectivity score S10 from competition binding against a panel of kinases; settings: compounds at 10 μM; panel of 359 distinct kinases
Protocol: Competition binding assays used herein were developed, validated and performed as described in Fabian et al., Nature Biotechnology 2005, 23,329-336. Kinases were produced as fusions to T7 phage (See, Fabian et al. or WO04/015142) or alternatively, the kinases were expressed in HEK-293 cells and subsequently tagged with DNA for PCR detection (See, WO08/005,310). For the binding assays, streptavidin-coated magnetic beads were treated with biotinylated affinity ligands for 30 min at room temperature to generate affinity resins. The liganded beads were blocked with excess biotin and washed with blocking buffer (SeaBlock (Pierce), 1% BSA, 0.05% Tween 20, 1 mM DTT) to remove unbound ligand and to reduce non-specific binding. Binding reactions were assembled by combining kinase, liganded affinity beads, and test compounds in 1× binding buffer (20% SeaBlock, 0.17×PBS, 0.05% Tween 20, 6 mM DTT). Test compounds were prepared as 100× stocks in DMSO and diluted into the aqueous environment. Kds were determined using an eleven point threefold serial dilutions. DMSO or control compounds were was added to control assays lacking a test compound. Primary screen assays were performed in polypropylene 384-well plates in a final volume of 20-40 μL, while Kd determinations were performed in polystyrene 96-well plates in a final volume of 135 μL. The assay plates were incubated at room temperature with shaking for 1 hour to allow the binding reactions to reach equilibrium, and the affinity beads were washed extensively with wash buffer (1×PBS, 0.05% Tween 20) to remove unbound protein. The beads were then resuspended in elution buffer (1×PBS, 0.05% Tween 20, 0.5 μM non-biotinylated affinity ligand) and incubated at room temperature with shaking for 30 min. The kinase concentration in the eluates was measured by quantitative PCR.
A selectivity score (S10) is a quantitative measure of selectivity of a compound against a panel of kinases. An S10 was calculated for a compound by dividing the number of kinases found to have a percent of control (DMSO) less than 10 by the total number of distinct kinases tested (excluding mutant variants). Percent of control (POC) is calculated by subtracting the signal of the control compound (POC=0) from the signal of the test compound and dividing the outcome by the signal of DMSO (POC=100) minus the signal of the control compound. For the compounds disclosed herein, S10 scores were obtained by testing the compounds at 10 μM concentration in a kinase panel containing either 359 or 386 distinct kinases.

KIT kinase = biological target: T1, KIT kinase (Homo sapiens, UniProt P10721); test: Competition binding assay, KIT Kd
T1 construct: made in house; host or cells: T7 phage display or HEK-293 cells
Summary of the method: (§1)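 Kd values derived from an eleven-point, threefold compound dilution series in a bead-based competition format: kinase (phage-fused or HEK-293-derived with DNA tag), ligand-coated streptavidin beads and compound equilibrated 1 h at room temperature. After washing, retained kinase was eluted with non-biotinylated ligand (0.5 μM) and measured by quantitative PCR.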

MV4-11 cells = test: MV4-11 cell proliferation assay (Alamar Blue); type: cell-based; settings: Homo sapiens, MV4-11, 72 h, 3 days incubation
Summary of the method: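 Flt3-ITD MV4-11 cells were serum-starved overnight in Iscove's with 0.5% FBS, then given compound at 9 half-log concentrations (0.5% DMSO) for 3 days at 37° C. Alamar Blue reduction was read after 3 h by fluorescence (560/590 nm). IC50 is the mean of duplicates versus negative control.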

CSF-1R kinase = biological target: T2, CSF-1R kinase (Homo sapiens, UniProt P07333); test: Competition binding assay, CSF-1R Kd
T2 construct: made in house; host or cells: T7 phage display or HEK-293 cells
Summary of the method: as §1

FLT3 kinase = biological target: T3, FLT3 kinase (Homo sapiens, UniProt P36888); test: Competition binding assay, FLT3 Kd
T3 construct: made in house; host or cells: T7 phage display or HEK-293 cells
T3 sequence (P36888 27-993): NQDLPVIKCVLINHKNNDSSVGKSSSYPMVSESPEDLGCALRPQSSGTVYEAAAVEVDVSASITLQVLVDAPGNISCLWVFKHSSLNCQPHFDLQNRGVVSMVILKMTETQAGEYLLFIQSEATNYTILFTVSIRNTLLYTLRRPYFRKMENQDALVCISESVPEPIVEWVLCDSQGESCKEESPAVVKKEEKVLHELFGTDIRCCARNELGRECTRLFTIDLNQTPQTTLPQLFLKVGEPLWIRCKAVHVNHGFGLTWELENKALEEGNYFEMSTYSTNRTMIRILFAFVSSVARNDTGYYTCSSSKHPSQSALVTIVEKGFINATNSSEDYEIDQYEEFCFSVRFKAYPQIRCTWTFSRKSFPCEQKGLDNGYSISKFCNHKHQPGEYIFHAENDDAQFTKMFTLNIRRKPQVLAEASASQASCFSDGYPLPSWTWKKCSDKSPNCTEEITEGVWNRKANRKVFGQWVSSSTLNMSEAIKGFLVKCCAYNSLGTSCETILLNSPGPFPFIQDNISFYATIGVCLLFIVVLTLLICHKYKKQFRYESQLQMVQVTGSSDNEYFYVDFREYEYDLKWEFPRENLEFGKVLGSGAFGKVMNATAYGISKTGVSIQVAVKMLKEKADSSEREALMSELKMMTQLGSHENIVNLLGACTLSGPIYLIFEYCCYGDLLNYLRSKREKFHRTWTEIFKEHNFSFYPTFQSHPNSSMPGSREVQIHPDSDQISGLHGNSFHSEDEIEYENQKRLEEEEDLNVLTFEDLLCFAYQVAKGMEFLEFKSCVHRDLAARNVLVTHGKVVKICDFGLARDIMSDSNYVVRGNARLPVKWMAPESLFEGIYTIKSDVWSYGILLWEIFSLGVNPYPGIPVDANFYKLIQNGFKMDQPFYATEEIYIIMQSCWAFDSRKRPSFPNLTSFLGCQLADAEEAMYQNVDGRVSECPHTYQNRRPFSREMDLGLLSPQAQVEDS
Summary of the method: as §1

T1 sequence (P10721 26-976): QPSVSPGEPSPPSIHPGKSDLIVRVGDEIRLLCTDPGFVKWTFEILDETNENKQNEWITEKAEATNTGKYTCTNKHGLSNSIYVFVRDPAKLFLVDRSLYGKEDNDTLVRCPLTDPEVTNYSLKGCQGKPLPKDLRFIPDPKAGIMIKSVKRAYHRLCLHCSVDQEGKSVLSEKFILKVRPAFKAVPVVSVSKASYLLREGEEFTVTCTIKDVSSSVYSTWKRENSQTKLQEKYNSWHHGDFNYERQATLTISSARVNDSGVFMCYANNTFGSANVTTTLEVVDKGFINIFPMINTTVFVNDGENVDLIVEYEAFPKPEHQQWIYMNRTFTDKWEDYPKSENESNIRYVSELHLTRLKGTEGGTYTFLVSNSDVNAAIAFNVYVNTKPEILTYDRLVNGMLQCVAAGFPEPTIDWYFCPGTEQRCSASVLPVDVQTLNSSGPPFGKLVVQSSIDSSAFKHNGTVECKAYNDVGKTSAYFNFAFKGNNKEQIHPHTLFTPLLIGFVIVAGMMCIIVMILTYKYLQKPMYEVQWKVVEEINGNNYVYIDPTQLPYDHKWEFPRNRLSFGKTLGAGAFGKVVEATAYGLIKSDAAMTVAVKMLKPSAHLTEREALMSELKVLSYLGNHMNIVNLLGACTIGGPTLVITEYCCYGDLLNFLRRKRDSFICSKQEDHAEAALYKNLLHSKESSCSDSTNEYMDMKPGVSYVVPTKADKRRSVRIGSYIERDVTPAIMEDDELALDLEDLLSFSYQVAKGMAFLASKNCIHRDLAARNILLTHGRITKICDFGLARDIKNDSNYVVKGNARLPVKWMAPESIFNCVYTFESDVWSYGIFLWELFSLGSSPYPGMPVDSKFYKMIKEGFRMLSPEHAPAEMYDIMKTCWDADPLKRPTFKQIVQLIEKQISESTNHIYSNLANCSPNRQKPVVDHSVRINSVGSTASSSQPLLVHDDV
T2 sequence (P07333 20-972): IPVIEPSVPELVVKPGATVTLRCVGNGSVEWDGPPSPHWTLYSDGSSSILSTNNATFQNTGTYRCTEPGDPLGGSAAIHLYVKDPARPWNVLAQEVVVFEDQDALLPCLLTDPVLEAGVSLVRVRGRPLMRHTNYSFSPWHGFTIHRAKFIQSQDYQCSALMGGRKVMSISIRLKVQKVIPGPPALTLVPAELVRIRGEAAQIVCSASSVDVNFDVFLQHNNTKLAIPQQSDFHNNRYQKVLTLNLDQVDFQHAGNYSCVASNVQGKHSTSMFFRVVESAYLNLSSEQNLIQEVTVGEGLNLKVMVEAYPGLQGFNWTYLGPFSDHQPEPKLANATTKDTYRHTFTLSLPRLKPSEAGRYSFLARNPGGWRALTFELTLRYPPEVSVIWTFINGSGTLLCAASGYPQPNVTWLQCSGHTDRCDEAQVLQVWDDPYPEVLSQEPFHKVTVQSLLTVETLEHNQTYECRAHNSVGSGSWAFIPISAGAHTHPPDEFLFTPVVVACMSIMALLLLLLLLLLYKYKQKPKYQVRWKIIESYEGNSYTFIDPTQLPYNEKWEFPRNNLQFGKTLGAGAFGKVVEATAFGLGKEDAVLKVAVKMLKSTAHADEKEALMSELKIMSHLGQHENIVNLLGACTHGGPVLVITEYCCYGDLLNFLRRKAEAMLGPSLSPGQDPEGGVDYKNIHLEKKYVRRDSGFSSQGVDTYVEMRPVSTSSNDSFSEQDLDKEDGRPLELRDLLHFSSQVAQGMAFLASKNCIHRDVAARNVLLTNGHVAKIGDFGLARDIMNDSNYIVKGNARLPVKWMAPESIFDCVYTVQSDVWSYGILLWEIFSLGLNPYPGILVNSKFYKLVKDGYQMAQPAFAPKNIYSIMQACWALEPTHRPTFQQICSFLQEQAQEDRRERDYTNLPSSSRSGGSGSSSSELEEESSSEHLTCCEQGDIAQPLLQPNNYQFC

Cc1nc(N)ccc1-c1ccc(NC(=O)Nc2cc(C(C)(C)C)on2)nc1 [Example 25, 1-(6′-amino-2′-methyl-3,3′-bipyridin-6-yl)-3-(5-tert-butylisoxazol-3-yl)urea]
Kinase specificty: S(10)-359 panel [1]: A (A≦0.1) | Kd (KIT kinase): ≤ 1 nM | IC50 (MV4-11 cells): 100 to 500 nM | Kd (CSF-1R kinase): 10 to 100 nM | Kd (FLT3 kinase): ≤ 1 nM

Cc1cc(N)ncc1-c1ccc(NC(=O)Nc2cc(C(C)(C)C)on2)nc1 [Example 26, 1-(6′-amino-4′-methyl-3,3′-bipyridin-6-yl)-3-(5-tert-butylisoxazol-3-yl)urea]
Kinase specificty: S(10)-359 panel [1]: A (A≦0.1) | Kd (KIT kinase): ≤ 1 nM | IC50 (MV4-11 cells): 100 to 500 nM | Kd (CSF-1R kinase): ≤ 10 nM | Kd (FLT3 kinase): ≤ 1 nM

CC(C)(C)c1cc(NC(=O)Nc2ccc(-c3cnc(N)nc3)cc2)no1 [Example 44, 1-(4-(2-aminopyrimidin-5-yl)phenyl)-3-(5-tert-butylisoxazol-3-yl)urea]
Kinase specificty: S(10)-359 panel [1]: B (0.1<B≦0.2 nM) | Kd (KIT kinase): 1 to 10 nM | IC50 (MV4-11 cells): ≤ 1 nM | Kd (CSF-1R kinase): ≤ 10 nM | Kd (FLT3 kinase): ≤ 1 nM

Nc1ncc(-c2ccc(NC(=O)Cc3cccc(C(F)(F)F)c3)cc2)cn1 [Example 46, N-(4-(2-aminopyrimidin-5-yl)phenyl)-2-(3-(trifluoromethyl)phenyl)acetamide]
Kinase specificty: S(10)-359 panel [1]: A (A≦0.1) | Kd (KIT kinase): ≤ 1 nM | IC50 (MV4-11 cells): 10 to 100 nM | Kd (CSF-1R kinase): 10 to 100 nM | Kd (FLT3 kinase): 1 to 10 nM

CC(C)(C)c1cc(NC(=O)Nc2ccc(-c3cnc(OCCN4CCOCC4)nc3)cc2)no1 [Example 47, 1-(5-tert-Butyl-isoxazol-3-yl)-3-{4-[2-(2-morpholin-4-yl-ethoxy)-pyrimidin-5-yl]-phenyl}-urea]
Kinase specificty: S(10)-359 panel [1]: A (A≦0.1) | Kd (KIT kinase): 1 to 10 nM | IC50 (MV4-11 cells): 10 to 100 nM | Kd (CSF-1R kinase): 10 to 100 nM | Kd (FLT3 kinase): 1 to 10 nM

Cc1nc(N)ncc1-c1ccc(NC(=O)Nc2cc(C(C)(C)C)on2)cc1 [Example 49, 1-(4-(2-amino-4-methylpyrimidin-5-yl)phenyl)-3-(5-tert-butylisoxazol-3-yl)urea]
Kinase specificty: S(10)-359 panel [1]: B (0.1<B≦0.2 nM) | Kd (KIT kinase): ≤ 1 nM | IC50 (MV4-11 cells): ≤ 1 nM | Kd (CSF-1R kinase): ≤ 10 nM | Kd (FLT3 kinase): ≤ 1 nM

COc1nc(N)ncc1-c1ccc(NC(=O)Nc2cc(C(C)(C)C)on2)cc1 [Example 50, 1-[4-(2-amino-4-methoxypyrimidin-5-yl)-phenyl]-3-(5-tert-butylisoxazol-3-yl)-urea]
Kinase specificty: S(10)-359 panel [1]: B (0.1<B≦0.2 nM) | Kd (KIT kinase): ≤ 1 nM | IC50 (MV4-11 cells): ≤ 1 nM | Kd (CSF-1R kinase): ≤ 10 nM | Kd (FLT3 kinase): 1 to 10 nM

CC(CF)(CF)c1cc(NC(=O)Nc2ccc(-c3cnc(NCCN4CCOCC4)nc3)cc2)no1 [Example 52, 1-[5-(2-fluoro-1-fluoromethyl-1-methylethyl)isoxazol-3-yl]-3-{4-[2-(2-morpholin-4-yl-ethylamino)pyrimidin-5-yl]phenyl}urea]
Kinase specificty: S(10)-359 panel [1]: B (0.1<B≦0.2 nM) | Kd (KIT kinase): ≤ 1 nM | IC50 (MV4-11 cells): 1 to 10 nM | Kd (CSF-1R kinase): ≤ 10 nM | Kd (FLT3 kinase): ≤ 1 nM

O=C(Nc1ccc(-c2cnc(NCCN3CCOCC3)nc2)cc1)Nc1cc(C2(C(F)(F)F)CC2)on1 [Example 53, 1-{4-[2-(2-morpholin-4-yl-ethylamino)-pyrimidin-5-yl]-phenyl}-3-[5-(1-trifluoromethyl-cyclopropyl)-isoxazol-3-yl]urea]
Kinase specificty: S(10)-359 panel [1]: B (0.1<B≦0.2 nM) | Kd (KIT kinase): ≤ 1 nM | IC50 (MV4-11 cells): 1 to 10 nM | Kd (CSF-1R kinase): ≤ 10 nM | Kd (FLT3 kinase): ≤ 1 nM

O=C(Nc1ccc(-c2cnc(NCCN3CCOCC3)nc2)cc1)Nc1cccc(C(F)(F)F)c1 [Example 54, 1-(4-(2-(2-morpholinoethylamino)pyrimidin-5-yl)phenyl)-3-(3-(trifluoromethyl)phenyl)urea]
Kinase specificty: S(10)-359 panel [1]: A (A≦0.1) | Kd (KIT kinase): ≤ 1 nM | IC50 (MV4-11 cells): 10 to 100 nM | Kd (CSF-1R kinase): ≤ 10 nM | Kd (FLT3 kinase): ≤ 1 nM

Cc1ccc(F)c(NC(=O)Nc2ccc(-c3cnc(NCCN4CCOCC4)nc3)cc2)c1 [Example 55, 1-(2-fluoro-5-methylphenyl)-3-(4-(2-(2-morpholinoethylamino)pyrimidin-5-yl)phenyl)urea]
Kinase specificty: S(10)-359 panel [1]: A (A≦0.1) | Kd (KIT kinase): ≤ 1 nM | IC50 (MV4-11 cells): 100 to 500 nM | Kd (CSF-1R kinase): ≤ 10 nM | Kd (FLT3 kinase): 1 to 10 nM

CC(C)(C)c1cc(NC(=O)Nc2ccc(-c3cnc(CCCN4CCOCC4)nc3)cc2)no1 [Example 56, 1-(5-tert-butylisoxazol-3-yl)-3-(4-(2-(3-morpholinopropyl)pyrimidin-5-yl)phenyl)urea]
Kinase specificty: S(10)-359 panel [1]: A (A≦0.1) | Kd (KIT kinase): 1 to 10 nM | IC50 (MV4-11 cells): 10 to 100 nM | Kd (CSF-1R kinase): ≤ 10 nM | Kd (FLT3 kinase): ≤ 1 nM

CN(C)CCNc1ncc(-c2ccc(NC(=O)Nc3cc(C(C)(C)C)on3)cc2)cn1 [Example 57, 1-(5-tert-butylisoxazol-3-yl)-3-(4-(2-(2-(dimethylamino)ethylamino)pyrimidin-5-yl)phenyl)urea]
Kinase specificty: S(10)-359 panel [1]: A (A≦0.1) | Kd (KIT kinase): ≤ 1 nM | IC50 (MV4-11 cells): 10 to 100 nM | Kd (CSF-1R kinase): ≤ 10 nM | Kd (FLT3 kinase): ≤ 1 nM

COCCNc1ncc(-c2ccc(NC(=O)Nc3cc(C(C)(C)C)on3)cc2)cn1 [Example 58, 1-(5-tert-butylisoxazol-3-yl)-3-{4-[2-(2-methoxyethylamino)pyrimidin-5-yl]-phenyl}urea]
Kinase specificty: S(10)-359 panel [1]: B (0.1<B≦0.2 nM) | Kd (KIT kinase): ≤ 1 nM | IC50 (MV4-11 cells): 1 to 10 nM | Kd (CSF-1R kinase): ≤ 10 nM | Kd (FLT3 kinase): ≤ 1 nM

CC(C)(C)c1cc(NC(=O)Nc2ccc(-c3cnc(NCCN4CCOCC4)nc3)cc2F)no1 [Example 59]
Kinase specificty: S(10)-359 panel [1]: B (0.1<B≦0.2 nM) | Kd (KIT kinase): ≤ 1 nM | IC50 (MV4-11 cells): 1 to 10 nM | Kd (CSF-1R kinase): ≤ 10 nM | Kd (FLT3 kinase): ≤ 1 nM

CC(C)(C)c1cc(NC(=O)Nc2ccc(-c3cnc(NCCN4CCCCC4)nc3)cc2)no1 [Example 60, 1-(5-tert-butylisoxazol-3-yl)-3-(4-(2-(2-(piperidin-1-yl)ethylamino)pyrimidin-5-yl)phenyl)urea]
Kinase specificty: S(10)-359 panel [1]: B (0.1<B≦0.2 nM) | Kd (KIT kinase): 1 to 10 nM | IC50 (MV4-11 cells): 10 to 100 nM | Kd (CSF-1R kinase): ≤ 10 nM | Kd (FLT3 kinase): ≤ 1 nM

CC(C)(C)c1cc(NC(=O)Nc2ccc(-c3cnc(NCCN4CCOCC4)nc3)cn2)no1 [Example 61, 1-(5-tert-butylisoxazol-3-yl)-3-{5-[2-(2-morpholin-4-yl-ethylamino)pyrimidin-5-yl]pyridin-2-yl}urea]
Kinase specificty: S(10)-359 panel [1]: A (A≦0.1) | Kd (KIT kinase): ≤ 1 nM | IC50 (MV4-11 cells): 10 to 100 nM | Kd (CSF-1R kinase): ≤ 10 nM | Kd (FLT3 kinase): ≤ 1 nM
